Laboratory results as given in patent publication US11478451B1, “Macrocyclic chlorine substituted indole derivatives” (Bayer Aktiengesellschaft, priority 2017, dated 2022).
Counter-ions that a name gives are not always drawn. Like-named read-outs stand apart in the source and are kept apart here.

Key:
SUDHL5 cells [1] = experiment: Induction of caspase-3/7 activity (Caspase-Glo 3/7), SUDHL5; type: cell-based; details: EC50, median, SUDHL5, 3 h treatment
Protocol: (§1) Induction of Caspase-3/7 Activity Upon Treatment of Cells with Selected Compounds
(§2) The BH3-domain of MCL-1 sequesters pro-apoptotic proteins, thereby inhibiting apoptosis. In contrast, MCL-1 inhibitors are expected to antagonize this effect leading to an increase in apoptosis, which can be determined by measuring the activity of caspase-3/7.
(§3) The activity of caspase-3/7 was determined in DLBCL (Diffuse large B-cell lymphoma) cell lines (SUDHL5 and SUDHL10) upon treatment with different compounds, using the Caspase-Glo® 3/7 reagent from Promega (G8092).
(§4) Rim wells were excluded. The cells were incubated for 3 h hours in a humidified incubator at 37° C.
(§5) For the evaluation of the results, the background measured with “medium-only” was subtracted from all other values.

SUDHL5 cells [2] = experiment: Antiproliferation assay (CellTiter-Glo, 72 h), SUDHL5; type: cell-based; details: Homo sapiens, SU-DHL-5, 72 h, IC50, median; SUDHL5, 72 h; read-out: Antiproli SUDHL5 [M] (median)
Protocol: (§6) Assessment of the Anti-Proliferative Effect of Compounds in Different Cell Lines
(§7) The impact of compounds on the proliferation of different cell lines was assessed using the CellTiter-Glo® Luminescent Cell Viability reagent from Promega (G7573).
(§8) In parallel, cells were plated in a reference (day 0) plate for time zero determination.
(§9) Rim wells were excluded. The cells were incubated for 72 h hours in a humidified incubator at 37° C. The day 0 plate was measured by adding 30 μL/well of CTG solution (CellTiter-Glo® Luminescent Cell Viability reagent, Promega G7573) to time zero wells in the reference plate followed by a 10 minutes incubation and luminescence reading at 0.1 ms. using the PHERAstar FS microplate reader (BMG Labtech).
(§10) After 72 h incubation, the treated plates were measured in the same way as the day 0 plate mentioned above.

AMO-1 cells = experiment: Antiproliferation assay (CellTiter-Glo, 72 h), AMO-1; type: cell-based; details: IC50, median, AMO-1, 72 h, read-out: Antiproli AMO-1 [M] median
Protocol: as §6, §7, §8, §9, §10

SUDHL5 cells [3] = experiment: Induction of cytotoxicity (CellTiter-Glo, 5 h), SUDHL5; details: SUDHL5, 5 h
SUDHL10 cells [4] = experiment: Induction of caspase-3/7 activity (Caspase-Glo 3/7), SUDHL10; type: cell-based; details: EC50, median, SUDHL10, 3 h treatment
Protocol: as §1, §2, §3, §4, §5

SUDHL10 cells [5] = experiment: Induction of cytotoxicity (CellTiter-Glo, 5 h), SUDHL10; details: SUDHL10, 5 h
[6] = Homo sapiens, SU-DHL-5, 5 h, read-out: Cytotox SUDHL5 [M] (median), IC50, median
[7] = read-out: Cytotox SUDHL5 [M] (median), IC50, median
[8] = read-out: Cytotox SUDHL10 [M] (median), IC50, median

Row | Compound | EC50 (SUDHL5 cells [1]; Homo sapiens, SU-DHL-5, 3 h) [µM] | IC50 (SUDHL5 cells [2]) [M] | IC50 (AMO-1 cells; Homo sapiens, AMO1, 72 h) [M] | IC50 (SUDHL5 cells [3]; [6]) [M] | EC50 (SUDHL5 cells [1]) [µM] | EC50 (SUDHL10 cells [4]) [µM] | IC50 (AMO-1 cells) [M] | IC50 (SUDHL5 cells [3]; [7]) [M] | IC50 (SUDHL10 cells [5]; [8]) [M] | EC50 (SUDHL10 cells [4]; listed as 078) [µM] | IC50 (SUDHL10 cells [5]; Homo sapiens, SU-DHL10, 5 h, read-out: Cytotox SUDHL10 [M] (median), IC50, median)
1 | CCc1nn(C)c2c1-c1c(Cl)ccc3c(CCCOc4cccc5cc(F)ccc45)c(C(=O)O)n(c13)CCCCN(C)C2 (single isomer, unassigned; enantiomer 1) [Example 40, 4-chloro-3-ethyl-7-{3-[(6-fluoronaphthalen-1-yl)oxy]propyl}-1,14-dimethyl-10,11,12,13,14,15-hexahydro-1H-pyrazolo[3′,4′:8,9][1,6]diazacycloundecino[10,11,1-hi]indole-8-carboxylic acid (Enantiomer 1)] | 0.2 | 2e-07 | 3.6e-07 | – | – | – | – | – | – | – | –
2 | CCc1c2c(nn1C)CNCCCCn1c(C(=O)O)c(CCCOc3cccc4cc(F)ccc34)c3ccc(Cl)c-2c31 (racemic) [Example 130, (rac)-4-chloro-3-ethyl-7-{3-[(6-fluoronaphthalen-1-yl)oxy]propyl}-2-methyl-10,11,12,13,14,15-hexahydro-2H-pyrazolo[3′,4′:8,9][1,6]diazacycloundecino[10,11,1-hi]indole-8-carboxylic acid] | 7.3 | 7.5e-06 | 6.3e-06 | 7.1e-06 | – | – | – | – | – | – | –
3 | CCc1c2c(nn1C)CN(C)CCCn1c(C(=O)O)c(CCCOc3cccc4cc(F)ccc34)c3ccc(Cl)c-2c31 [Example 114, (−)-2-chloro-11-ethyl-1-{3-[(6-fluoronaphthalen-1-yl)oxy]propyl}-7,10-dimethyl-4,5,6,7,8,10-hexahydropyrazolo[3′,4′:7,8][1,5]diazecino[9,10,1-hi]indole-2-carboxylic acid salt] | – | – | – | – | 4.3 | 6.3 | 4.4e-06 | 5.7e-06 | 5.9e-06 | – | –
4 | Cc1c2c(nn1C)COCC1CCC1Cn1c(C(=O)O)c(CCCOc3cccc4ccccc34)c3ccc(Cl)c-2c31 (single isomer, unassigned; enantiomer 1) [Example 78, 3-chloro-4,5-dimethyl-15-{3-[(naphthalen-1-yl)oxy]propyl}-5,7,9,9a,10,11,11a,12-octahydrocyclobuta[3,4]pyrazolo[4′,3′:9,10][1,6]oxazacycloundecino[8,7,6-hi]indole-14-carboxylic acid (Enantiomer 1)] | 0.67 | – | 3e-06 | 8.2e-07 | – | – | – | – | – | 3.8 | 3.1e-06
5 | CCc1c2c(nn1C)COCC(O)CCn1c(C(=O)O)c(CCCOc3cccc4cc(F)ccc34)c3ccc(Cl)c-2c31 (stereo not drawn) [Example 101, 4-chloro-3-ethyl-7-{3-[(6-fluoronaphthalen-1-yl)oxy]propyl}-12-hydroxy-2-methyl-2,10,11,12,13,15-hexahydropyrazolo[4′,3′:9,10][1,6]oxazacycloundecino[8,7,6-hi]indole-8-carboxylic acid-N-ethylethanamine salt] | – | – | – | – | 5.9 | 6.1 | – | 7.3e-06 | 7.7e-06 | – | –
6 | CCc1nn(CCN2CCOCC2)c2c1-c1c(Cl)ccc3c(CCCOc4cccc5ccccc45)c(C(=O)O)n(c13)CCCCN(C)C2 (racemic) [Example 45, (rac)-4-chloro-3-ethyl-14-methyl-1-[2-(morpholin-4-yl)ethyl]-7-{3-[(naphthalen-1-yl)oxy]propyl}-10,11,12,13,14,15-hexahydro-1H-pyrazolo[3′,4′:8,9][1,6]diazacycloundecino[10,11,1-hi]indole-8-carboxylic acid] | 9.4 | 7.2e-06 | – | 8.1e-06 | – | – | – | – | – | – | –
7 | CCc1c2c(nn1C)COCC1CC1Cn1c(C(=O)O)c(CCCOc3cccc4cc(F)ccc34)c3ccc(Cl)c-2c31 (single isomer, unassigned; (-)) [Example 105, (−)-3-chloro-4-ethyl-14-{3-[(6-fluoronaphthalen-1-yl)oxy]propyl}-5-methyl-5,7,9a,10,10a,11-hexahydro-9H-cyclopropa[3,4]pyrazolo[4′,3′:9,10][1,6]oxazacycloundecino[8,7,6-hi]indole-13-carboxylic acid N-ethylethanamine salt] | – | – | – | – | 0.13 | 0.12 | – | – | 2.2e-07 | – | –
